# Experimental data from PubChem BioAssay (NCI).
#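 GI50 = concentration required for 50% inhibition of growth. TGI marks complete inhibition of growth.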
# Key:
# Assay in all cases: NCI tumour cell line growth inhibition, 384-well format
# [1] = system: 786-0 renal
# [2] = system: A498 renal
# [3] = system: A549 NSCLC
# [4] = system: ACHN renal
# [5] = system: BT-549 breast
# [6] = system: CAKI-1 renal
# [7] = system: CCRF-CEM leukemia
# [8] = system: COLO 205 colon
# [9] = system: DU-145 prostate
# [10] = system: EKVX NSCLC
# [11] = system: HCC-2998 colon
# [12] = system: HCT-15 colon
# [13] = system: HL-60(TB) leukemia
# [14] = system: HOP-62 NSCLC
# [15] = system: HOP-92 NSCLC
# [16] = system: HS 578T breast
# [17] = system: HT29 colon
# [18] = system: IGROV1 ovarian
# [19] = system: K-562 leukemia
# [20] = system: KM12 colon
# [21] = system: LOX IMVI melanoma
# [22] = system: M14 melanoma
# [23] = system: MALME-3M melanoma
# [24] = system: MCF7 breast
# [25] = system: MDA-MB-231 breast
# [26] = system: MDA-MB-435 melanoma
# [27] = system: MDA-MB-468 breast
# [28] = system: MOLT-4 leukemia
# [29] = system: NCI-H226 lung
# [30] = system: NCI-H23 lung
# [31] = system: NCI-H322M lung
# [32] = system: NCI-H460 NSCLC
# [33] = system: NCI-H522 lung
# [34] = system: NCI/ADR-RES ovarian
# [35] = system: OVCAR-3 ovarian
# [36] = system: OVCAR-4 ovarian
# [37] = system: OVCAR-5 ovarian
# [38] = system: OVCAR-8 ovarian
# [39] = system: PC-3 prostate
# [40] = system: RPMI-8226 leukemia
# [41] = system: RXF 393 renal
# [42] = system: SF-268 CNS
# [43] = system: SF-295 CNS
# [44] = system: SF-539 CNS
# [45] = system: SK-MEL-28 melanoma
# [46] = system: SK-MEL-5 melanoma
# [47] = system: SK-OV-3 ovarian
# [48] = system: SN12C renal
# [49] = system: SNB-19 CNS
# [50] = system: SNB-75 CNS
# [51] = system: SR leukemia
# [52] = system: SW-620 colon
# [53] = system: T-47D breast
# [54] = system: TK-10 renal
# [55] = system: U251 glioblastoma
# [56] = system: UACC-257 melanoma
# [57] = system: UACC-62 melanoma
# [58] = system: UO-31 renal
smiles,measurement,setting,value
COc1ccc(Br)cc1NC(=O)Nc1cccc2c1ccn2Cc1ccnc(N)c1,GI50,[1],4.23 µM
same,TGI,[1],16.6 µM
same,GI50,[2],3.56 µM
same,TGI,[2],13.5 µM
same,GI50,[3],7.56 µM
same,TGI,[3],20.2 µM
same,GI50,[4],7.08 µM
same,TGI,[4],20.3 µM
same,GI50,[5],9.64 µM
same,TGI,[5],21.5 µM
same,GI50,[6],10.7 µM
same,TGI,[6],22.8 µM
same,GI50,[7],2.49 µM
same,TGI,[7],5.33 µM
same,GI50,[8],5.82 µM
same,TGI,[8],18.2 µM
same,GI50,[9],12.9 µM
same,TGI,[9],27.9 µM
same,GI50,[10],8.67 µM
same,TGI,[10],22 µM
same,GI50,[11],3.51 µM
same,TGI,[11],8.43 µM
same,GI50,[12],2.02 µM
same,TGI,[12],3.63 µM
same,GI50,[13],1.87 µM
same,TGI,[13],4.64 µM
same,GI50,[14],11.7 µM
same,TGI,[14],24.1 µM
same,GI50,[15],5.73 µM
same,TGI,[15],18.3 µM
same,GI50,[16],6.06 µM
same,TGI,[16],17.8 µM
same,GI50,[17],2.01 µM
same,TGI,[17],4.13 µM
same,GI50,[18],11.3 µM
same,TGI,[18],23.6 µM
same,GI50,[19],1.47 µM
same,TGI,[19],2.81 µM
same,GI50,[20],2.54 µM
same,TGI,[20],5.81 µM
same,GI50,[21],4.85 µM
same,TGI,[21],15.2 µM
same,GI50,[22],6.29 µM
same,TGI,[22],18.1 µM
same,GI50,[23],7.13 µM
same,TGI,[23],19.9 µM
same,GI50,[24],5.26 µM
same,TGI,[24],18.3 µM
same,GI50,[25],13.2 µM
same,TGI,[25],26.1 µM
same,GI50,[26],10.9 µM
same,TGI,[26],23 µM
same,GI50,[27],2.81 µM
same,TGI,[27],5.07 µM
same,GI50,[28],1.56 µM
same,TGI,[28],3.55 µM
same,GI50,[29],5.77 µM
same,TGI,[29],17.9 µM
same,GI50,[30],9.53 µM
same,TGI,[30],21.6 µM
same,GI50,[31],8.46 µM
same,TGI,[31],21.4 µM
same,GI50,[32],3.15 µM
same,TGI,[32],9.4 µM
same,GI50,[33],3.51 µM
same,TGI,[33],10.6 µM
same,GI50,[34],10.5 µM
same,TGI,[34],23 µM
same,GI50,[35],10 µM
same,TGI,[35],21.7 µM
same,GI50,[36],3.72 µM
same,TGI,[36],9.86 µM
same,GI50,[37],11.8 µM
same,TGI,[37],24.6 µM
same,GI50,[38],11.9 µM
same,TGI,[38],24.5 µM
same,GI50,[39],6.67 µM
same,TGI,[39],18.9 µM
same,GI50,[40],2.35 µM
same,TGI,[40],6.39 µM
same,GI50,[41],6.56 µM
same,TGI,[41],18.7 µM
same,GI50,[42],9.97 µM
same,TGI,[42],21.9 µM
same,GI50,[43],2.82 µM
same,TGI,[43],8.47 µM
same,GI50,[44],4.44 µM
same,TGI,[44],18 µM
same,GI50,[45],11.5 µM
same,TGI,[45],23.7 µM
same,GI50,[46],4.55 µM
same,TGI,[46],15.4 µM
same,GI50,[47],8.96 µM
same,TGI,[47],21.1 µM
same,GI50,[48],6.14 µM
same,TGI,[48],19.2 µM
same,GI50,[49],9.24 µM
same,TGI,[49],21.7 µM
same,GI50,[50],14.1 µM
same,TGI,[50],29.7 µM
same,GI50,[51],1.75 µM
same,TGI,[51],3.72 µM
same,GI50,[52],12.4 µM
same,TGI,[52],25 µM
same,GI50,[53],3.77 µM
same,TGI,[53],11.8 µM
same,GI50,[54],6.85 µM
same,TGI,[54],20 µM
same,GI50,[55],6.92 µM
same,TGI,[55],19.5 µM
same,GI50,[56],4.42 µM
same,TGI,[56],14.2 µM
same,GI50,[57],5.8 µM
same,TGI,[57],18.6 µM
same,GI50,[58],12.2 µM
same,TGI,[58],24.9 µM
